Measured values: ChEMBL document CHEMBL3352288, “Synthesis and biological evaluation of 9α- and 9β-hydroxyamino-parthenolides as novel anticancer agents” (Bioorg Med Chem Lett, 2014)

Assays:
Format in all cases: functional, cell-based
SK-MEL-28 = test: Anticancer activity against human SK-MEL-28 cells assessed as growth inhibition after 72 hrs by MTT assay; settings: SK-MEL-28, 72 h
Hs 683 = test: Anticancer activity against human Hs 683 cells assessed as growth inhibition after 72 hrs by MTT colorimetric assay; settings: Hs 683, 72 h
A549 = test: Anticancer activity against human A549 cells assessed as growth inhibition after 72 hrs by MTT colorimetric assay; settings: A549, 72 h
[1] = Anticancer activity against mouse B16F10 cells assessed as growth inhibition after 72 hrs by MTT colorimetric assay; settings: B16-F10, 72 h
MCF7 = test: Anticancer activity against human MCF7 cells assessed as growth inhibition after 72 hrs by MTT assay; settings: MCF7, 72 h
T98G = test: Anticancer activity against human T98G cells assessed as growth inhibition after 72 hrs by MTT assay
[2] = Anticancer activity against human Glioma cells assessed as growth inhibition after 72 hrs by MTT assay

SMILES: C/C1=C\CC[C@@]2(C)O[C@@H]2[C@H]2OC(=O)[C@@H](CN3CCCC3)[C@@H]2C[C@@H]1O
- IC50 (SK-MEL-28): 23 µM
- IC50 (Hs 683): 10 µM
- IC50 (A549): 9 µM
- IC50 [1]: 7 µM
- IC50 (MCF7): 18 µM
- IC50 (T98G): 15 µM

SMILES: COc1ccc(N2CCN(C[C@@H]3C(=O)O[C@H]4[C@H]3C[C@@H](O)/C(C)=C/CC[C@@]3(C)O[C@H]43)CC2)cc1
- IC50 [2]: 18 µM
- IC50 (SK-MEL-28): 25 µM
- IC50 (Hs 683): 22 µM
- IC50 (A549): 26 µM
- IC50 [1]: 14 µM
- IC50 (MCF7): 24 µM

SMILES: C[C@]12O[C@@H]1CC[C@@]1(C)O[C@@H]1[C@H]1OC(=O)[C@@H](CN3CCN(c4ccccc4F)CC3)[C@@H]1C[C@H]2O
- IC50 [2]: 8 µM
- IC50 (SK-MEL-28): 17 µM
- IC50 (Hs 683): 18 µM
- IC50 (A549): 22 µM
- IC50 [1]: 5 µM
- IC50 (MCF7): 20 µM

SMILES: C/C1=C\CC[C@@]2(C)O[C@@H]2[C@H]2OC(=O)[C@@H](CN(C)CCN(C)C)[C@@H]2C[C@H]1O
- IC50 [2]: 16 µM
- IC50 (SK-MEL-28): 19 µM
- IC50 (Hs 683): 9 µM
- IC50 (A549): 8 µM
- IC50 [1]: 4 µM
- IC50 (MCF7): 14 µM

SMILES: C/C1=C\CC[C@@]2(C)O[C@@H]2[C@H]2OC(=O)[C@@H](CN3CCN(c4ccccc4F)CC3)[C@@H]2C[C@H]1O
- IC50 [2]: 6 µM
- IC50 (SK-MEL-28): 25 µM
- IC50 (Hs 683): 25 µM
- IC50 (A549): 22 µM
- IC50 [1]: 6 µM
- IC50 (MCF7): 24 µM

SMILES: C/C1=C\CC[C@@]2(C)O[C@@H]2[C@H]2OC(=O)[C@@H](CN3CCN(c4ccccc4)CC3)[C@@H]2C[C@H]1O
- IC50 [2]: 5 µM
- IC50 (SK-MEL-28): 19 µM
- IC50 (Hs 683): 22 µM
- IC50 (A549): 17 µM
- IC50 [1]: 6 µM
- IC50 (MCF7): 19 µM

SMILES: C=C1C(=O)O[C@H]2[C@H]1C[C@H](O)/C(C)=C/CC[C@@]1(C)O[C@@H]21
- IC50 (SK-MEL-28): 25 µM
- IC50 (Hs 683): 25 µM
- IC50 (A549): 24 µM
- IC50 [1]: 15 µM
- IC50 (MCF7): 23 µM
- IC50 (T98G): 25 µM

SMILES: C/C1=C\CC[C@@]2(C)O[C@@H]2[C@H]2OC(=O)[C@@H](CN3CCCCC3)[C@@H]2C[C@H]1O
- IC50 [2]: 4 µM
- IC50 (SK-MEL-28): 16 µM
- IC50 (Hs 683): 7 µM
- IC50 (A549): 18 µM
- IC50 [1]: 4 µM
- IC50 (MCF7): 16 µM

SMILES: C[C@]12O[C@@H]1CC[C@@]1(C)O[C@@H]1[C@H]1OC(=O)[C@@H](CN3CCCCC3)[C@@H]1C[C@H]2O
- IC50 [2]: 59 µM
- IC50 (SK-MEL-28): 84 µM
- IC50 (Hs 683): 67 µM
- IC50 (A549): 90 µM
- IC50 [1]: 46 µM
- IC50 (MCF7): 74 µM

SMILES: C/C1=C\CC[C@@]2(C)O[C@@H]2[C@H]2OC(=O)[C@@H](CN3CCOCC3)[C@@H]2C[C@H]1O
- IC50 [2]: 5 µM
- IC50 (SK-MEL-28): 22 µM
- IC50 (Hs 683): 22 µM
- IC50 (A549): 25 µM
- IC50 [1]: 5 µM
- IC50 (MCF7): 24 µM

SMILES: C/C1=C\CC[C@@]2(C)O[C@@H]2[C@H]2OC(=O)[C@@H](CN3CCCC3)[C@@H]2C[C@H]1O
- IC50 [2]: 5 µM
- IC50 (SK-MEL-28): 19 µM
- IC50 (Hs 683): 15 µM
- IC50 (A549): 10 µM
- IC50 [1]: 4 µM
- IC50 (MCF7): 21 µM

SMILES: C[C@]12O[C@@H]1CC[C@@]1(C)O[C@@H]1[C@H]1OC(=O)[C@@H](CN3CCOCC3)[C@@H]1C[C@H]2O
- IC50 [2]: 12 µM
- IC50 (SK-MEL-28): 22 µM
- IC50 (Hs 683): 24 µM
- IC50 (A549): 23 µM
- IC50 [1]: 9 µM
- IC50 (MCF7): 24 µM

SMILES: C=C1C(=O)O[C@H]2[C@H]1C[C@@H](O)/C(C)=C/CC[C@@]1(C)O[C@@H]21
- IC50 (SK-MEL-28): 9 µM
- IC50 (Hs 683): 7 µM
- IC50 (A549): 7 µM
- IC50 [1]: 4 µM
- IC50 (MCF7): 6 µM
- IC50 (T98G): 11 µM

SMILES: C[C@]12O[C@@H]1CC[C@@]1(C)O[C@@H]1[C@H]1OC(=O)[C@@H](CN3CCN(c4ccccc4)CC3)[C@@H]1C[C@H]2O
- IC50 [2]: 35 µM
- IC50 (SK-MEL-28): 51 µM
- IC50 (Hs 683): 31 µM
- IC50 (A549): 48 µM
- IC50 [1]: 22 µM
- IC50 (MCF7): 59 µM

SMILES: C/C1=C\CC[C@@]2(C)O[C@@H]2[C@H]2OC(=O)[C@@H](CN3CCN(C)CC3)[C@@H]2C[C@@H]1O
- IC50 (SK-MEL-28): 23 µM
- IC50 (Hs 683): 22 µM
- IC50 (A549): 25 µM
- IC50 [1]: 9 µM
- IC50 (MCF7): 22 µM
- IC50 (T98G): 23 µM

SMILES: C/C1=C\CC[C@@]2(C)O[C@@H]2[C@H]2OC(=O)[C@@H](CN3CCN(C)CC3)[C@@H]2C[C@H]1O
- IC50 [2]: 36 µM
- IC50 (SK-MEL-28): 57 µM
- IC50 (Hs 683): 33 µM
- IC50 (A549): 30 µM
- IC50 [1]: 25 µM
- IC50 (MCF7): 33 µM

SMILES: C[C@]12O[C@@H]1CC[C@@]1(C)O[C@@H]1[C@H]1OC(=O)[C@@H](CN3CCN(c4ccc(Cl)cc4)CC3)[C@@H]1C[C@H]2O
- IC50 (SK-MEL-28): 31 µM
- IC50 (A549): 28 µM
- IC50 [1]: 19 µM
- IC50 (MCF7): 29 µM
- IC50 (T98G): 16 µM

SMILES: C/C1=C\CC[C@@]2(C)O[C@@H]2[C@H]2OC(=O)[C@@H](CN3CCCCC3)[C@@H]2C[C@@H]1O
- IC50 (SK-MEL-28): 10 µM
- IC50 (Hs 683): 7 µM
- IC50 (A549): 6 µM
- IC50 [1]: 6 µM
- IC50 (MCF7): 8 µM
- IC50 (T98G): 17 µM
